In brackets after ≈: the same amount, converted by molar mass. Activity calls are given as the source filed them. No cut-off for these calls is given here.
Columns and labels:
Staphylococcus aureus [1] = assay: Antibacterial activity against methicillin-resistant Staphylococcus aureus ATCC43300 assessed as bacterial growth inhibition incubated for 18 to 24 hrs by microbroth dilution method; assay type: functional; settings: time 18-24 hrs
Escherichia coli = assay: Antibacterial activity against penicillin-susceptible Escherichia coli ATCC25922 assessed as bacterial growth inhibition incubated for 18 to 24 hrs by microbroth dilution method; assay type: functional; settings: time 18-24 hrs
Streptococcus pneumoniae = assay: Antibacterial activity against Streptococcus pneumoniae ATCC49619 assessed as bacterial growth inhibition incubated for 18 to 24 hrs by microbroth dilution method; assay type: functional; settings: time 18-24 hrs
Bacillus subtilis [2] = assay: Antibacterial activity against Bacillus subtilis BNCC336690 assessed as bacterial growth inhibition incubated for 18 to 24 hrs by microbroth dilution method; assay type: functional; settings: time 18-24 hrs
Staphylococcus aureus [3] = assay: Antibacterial activity against methicillin-resistant Staphylococcus aureus ATCC43300 assessed as log10 CFU reduction at 1 to 4 times MIC measured after 4 hrs by time-killing assay; assay type: functional
[4] = target: T1, Cell division protein FtsZ (Escherichia coli K-12) (UniProt P0A9A6); assay: Inhibition of recombinant Escherichia coli FtsZ expressed in Escherichia coli BL21 assessed as induction of FtsZ polymerization incubated for 10 mins by light scattering assay; settings: dose 1-4 µg/ml
T1 sequence (whole entry): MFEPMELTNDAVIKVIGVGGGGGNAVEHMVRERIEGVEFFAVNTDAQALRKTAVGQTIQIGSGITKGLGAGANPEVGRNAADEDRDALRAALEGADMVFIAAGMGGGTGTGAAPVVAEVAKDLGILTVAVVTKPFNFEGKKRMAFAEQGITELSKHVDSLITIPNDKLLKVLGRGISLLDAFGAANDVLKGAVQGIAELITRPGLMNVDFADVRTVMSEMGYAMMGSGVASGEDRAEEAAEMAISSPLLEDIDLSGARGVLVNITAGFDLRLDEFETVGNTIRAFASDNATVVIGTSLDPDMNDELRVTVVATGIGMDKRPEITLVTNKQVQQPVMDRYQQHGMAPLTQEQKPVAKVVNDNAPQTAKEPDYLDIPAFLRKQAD

Staphylococcus aureus [5] = assay: Antibacterial activity against methicillin-resistant Staphylococcus aureus ATCC43300 assessed as filamentation on cell surface at 4 times MIC incubated for 2 hrs by SEM analysis; assay type: functional, organism-based
[6] = Cytotoxicity against mouse RAW264.7 cells assessed as cell survival at 12.5 ug/ml incubated for 24 hrs by CCK8 assay relative to control; assay type: toxicity, cell-based; settings: at 12.5 µg/mL, read-out: Activity
[7] = Cytotoxicity against mouse RAW264.7 cells assessed as cell survival at 50 ug/ml incubated for 24 hrs by CCK8 assay relative to control; assay type: toxicity, cell-based; settings: at 50 µg/mL, read-out: Activity
Bacillus subtilis [8] = assay: Antibacterial activity against Bacillus subtilis BNCC336690 assessed as increase in cell length at 0.5 times MIC incubated for 4 hrs by microscopic analysis; assay type: functional, organism-based
Staphylococcus aureus [9] = assay: Antibacterial activity against methicillin-resistant Staphylococcus aureus ATCC43300 assessed as wrinkling cell surface at 4 times MIC incubated for 2 hrs by SEM analysis; assay type: functional, organism-based
[10] = Hemolytic activity in human erythrocytes assessed as release of hemoglobin level at 12.5 ug/ml incubated for 1 hr by absorbance based assay relative to control; assay type: toxicity, cell-based, Erythrocyte; settings: at 12.5 µg/mL, read-out: Activity
Staphylococcus aureus [11] = assay: Antibacterial activity against drug-resistant Staphylococcus aureus ATCC43300 assessed as inhibition of resistance development at 0.5 times MIC after 25 passages incubated for 18 to 24 hrs by microbroth dilution method; assay type: functional, organism-based; settings: time 18-24 hrs
[12] = target: T1, Cell division protein FtsZ (Escherichia coli K-12); assay: Inhibition of recombinant Escherichia coli FtsZ expressed in Escherichia coli BL21 assessed as bundling of FtsZ filaments at 4 ug/ml incubated for 10 mins by TEM analysis; settings: dose 4.0 µg/ml
[13] = target: T1, Cell division protein FtsZ (Escherichia coli K-12); assay: Inhibition of recombinant Escherichia coli FtsZ expressed in Escherichia coli BL21 assessed as reduction in GTPase activity incubated for 30 mins by malachite green phosphate staining based assay; settings: dose 0.02-0.64 µg/ml
[14] = target: T1, Cell division protein FtsZ (Escherichia coli K-12); assay: Inhibition of recombinant Escherichia coli FtsZ expressed in Escherichia coli BL21 assessed as reduction in GTPase activity at 0.32 ug/ml incubated for 30 mins by malachite green phosphate staining based assay relative to control; settings: dose 0.32 µg/ml
[15] = Cytotoxicity against mouse RAW264.7 cells assessed as cell survival at 25 ug/ml incubated for 24 hrs by CCK8 assay relative to control; assay type: toxicity, cell-based; settings: at 25 µg/mL, read-out: Activity
[16] = target: T1, Cell division protein FtsZ (Escherichia coli K-12); assay: Inhibition of recombinant Escherichia coli FtsZ expressed in Escherichia coli BL21 assessed as induction of FtsZ polymerization at 4 ug/ml incubated for 10 mins by light scattering assay; settings: dose 4.0 µg/ml

SMILES: CCCCCCNC(=O)c1ccc2[nH]c3c4[n+](ccc3c2c1)-c1ccccc1C4=O.[Br-]
- MIC (Staphylococcus aureus [1]): 0.39 µg/mL
- MIC (Escherichia coli): > 200 µg/mL
- MIC (Streptococcus pneumoniae): 0.39 µg/mL
- MIC (Bacillus subtilis [2]): 0.39 µg/mL

SMILES: O=C(Nc1ccccc1)c1ccc2[nH]c3c4[n+](ccc3c2c1)-c1ccccc1C4=O.[Br-]
- MIC (Staphylococcus aureus [1]): 12.5 µg/mL
- MIC (Escherichia coli): > 200 µg/mL
- MIC (Streptococcus pneumoniae): 6.25 µg/mL
- MIC (Bacillus subtilis [2]): 6.25 µg/mL

SMILES: CC(C)c1cccc(NC(=O)c2ccc3[nH]c4c5[n+](ccc4c3c2)-c2ccccc2C5=O)c1.[Br-]
- MIC (Staphylococcus aureus [1]): 0.098 µg/mL
- Activity (Staphylococcus aureus [3]): 2 log10CFU/ml
- inhibition [4]: Dose-Dependent Effect
- Activity (Staphylococcus aureus [5]): Active
- viability at 24 h, 12.5 ug/ml [6]: 98.8%
- viability at 24 h, 50 ug/ml [7]: 98.2%
- Activity (Bacillus subtilis [8]): Active
- Activity (Staphylococcus aureus [9]): Active
- hemolysis at 1 h, 12.5 ug/ml [10]: 0%
- inhibition (Staphylococcus aureus [11]): inactive
- MIC (Escherichia coli): > 200 µg/mL
- inhibition [12]: Active
- inhibition [13]: Dose-Dependent Effect
- MIC (Streptococcus pneumoniae): 0.049 µg/mL
- inhibition [14]: 40%
- viability at 24 h, 25 ug/ml [15]: 100%
- MIC (Bacillus subtilis [2]): 0.098 µg/mL

SMILES: CC(C)c1ccccc1NC(=O)c1ccc2[nH]c3c4[n+](ccc3c2c1)-c1ccccc1C4=O.[Br-]
- MIC (Staphylococcus aureus [1]): 12.5 µg/mL
- MIC (Escherichia coli): > 200 µg/mL
- MIC (Streptococcus pneumoniae): 50 µg/mL
- MIC (Bacillus subtilis [2]): 6.25 µg/mL

SMILES: Cc1ccccc1NC(=O)c1ccc2[nH]c3c4[n+](ccc3c2c1)-c1ccccc1C4=O.[Br-]
- MIC (Staphylococcus aureus [1]): 25 µg/mL
- MIC (Escherichia coli): > 200 µg/mL
- MIC (Streptococcus pneumoniae): 50 µg/mL
- MIC (Bacillus subtilis [2]): 12.5 µg/mL

SMILES: CCCCCCCCc1ccc(NC(=O)c2ccc3[nH]c4c5[n+](ccc4c3c2)-c2ccccc2C5=O)cc1.[Br-]
- MIC (Staphylococcus aureus [1]): 25 µg/mL
- MIC (Escherichia coli): > 200 µg/mL
- MIC (Streptococcus pneumoniae): 25 µg/mL
- MIC (Bacillus subtilis [2]): 25 µg/mL

SMILES: COc1ccc(NC(=O)c2ccc3[nH]c4c5[n+](ccc4c3c2)-c2ccccc2C5=O)cc1.[Br-]
- MIC (Staphylococcus aureus [1]): 0.39 µg/mL
- MIC (Escherichia coli): > 200 µg/mL
- MIC (Streptococcus pneumoniae): 0.39 µg/mL
- MIC (Bacillus subtilis [2]): 0.39 µg/mL

SMILES: Cc1cccc(NC(=O)c2ccc3[nH]c4c5[n+](ccc4c3c2)-c2ccccc2C5=O)c1.[Br-]
- MIC (Staphylococcus aureus [1]): 0.098 µg/mL
- Activity (Staphylococcus aureus [3]): 2 log10CFU/ml
- inhibition [4]: Dose-Dependent Effect
- Activity (Staphylococcus aureus [5]): Active
- viability at 24 h, 12.5 ug/ml [6]: 104%
- inhibition [16]: Active
- viability at 24 h, 50 ug/ml [7]: 101%
- Activity (Bacillus subtilis [8]): Active
- Activity (Staphylococcus aureus [9]): Active
- hemolysis at 1 h, 12.5 ug/ml [10]: 0%
- inhibition (Staphylococcus aureus [11]): inactive
- MIC (Escherichia coli): > 200 µg/mL
- inhibition [12]: Active
- inhibition [13]: Dose-Dependent Effect
- MIC (Streptococcus pneumoniae): 0.098 µg/mL
- viability at 24 h, 25 ug/ml [15]: 106%
- MIC (Bacillus subtilis [2]): 0.049 µg/mL

SMILES: CCCCc1ccc(NC(=O)c2ccc3[nH]c4c5[n+](ccc4c3c2)-c2ccccc2C5=O)cc1.[Br-]
- MIC (Staphylococcus aureus [1]): 3.12 µg/mL
- MIC (Escherichia coli): > 200 µg/mL
- MIC (Streptococcus pneumoniae): 0.78 µg/mL
- MIC (Bacillus subtilis [2]): 0.049 µg/mL

SMILES: O=C(O)c1cn(C2CC2)c2cc(N3CCNCC3)c(F)cc2c1=O [CIPROFLOXACIN]
- MIC (Staphylococcus aureus [1]): 0.78 µg/mL (≈ 2.35 µM)
- MIC (Escherichia coli): 0.195 µg/mL (≈ 0.589 µM)
- MIC (Streptococcus pneumoniae): 0.195 µg/mL (≈ 0.589 µM)
- MIC (Bacillus subtilis [2]): 0.195 µg/mL (≈ 0.589 µM)
